Data: patent US20110152267A1, “Compositions and Methods for Treating Hyperproliferative Disorders” (Texas Tech University System, priority 2009, published 2011)

Tests used:
Format in all cases: cell-based, human
[1] = tested on: NCI-H-1792 lung adenocarcinoma cell line; test: DIMSCAN cytotoxicity, fenretinide + L-threo-sphinganines 3:1 (Example B12); settings: 96 h
Protocol: (§1) Cytotoxicity Assay—Once again, cytotoxicity is determined using the DIMSCAN assay system (R. Proffitt et al., Cytometry 24, 204-213 (1996); T. Frgala et al., Mol Cancer Ther. 6:886-97, 2007). The system employs digital imaging microscopy to quantify viable cells, which selectively accumulate fluorescein diacetate to become brightly fluorescent. The system is capable of measuring cytotoxicity over a 4-5 log dynamic range by quenching the residual fluorescence of dead and dying cells with eosin Y and quantifying the total fluorescence of viable cells using digital thresholding. Measured fluorescence is directly proportionate to the number of viable cells. A comparison of the total fluorescence of a drug-treated cell population to the fluorescence of a similar number of untreated cells yields a survival fraction. In brief, 2000 to 10,000 cells/well (depending on size and growth rates) are replicate plated into 60 wells of a 96-well tissue culture plate in 0.1 mL of whole medium and allowed to attach overnight. Drug(s) are then added in 0.05 mL of whole medium to the final concentrations indicated. Drugs (fenretinide, and various chain length L-threo-sphinganines) were tested both as single agents and in a 3:1 ratio of fenretinide:sphinganine. C18-L-threo-sphinganine, or “safingol,” was also tested and results shown for reference. There are 12 wells treated per drug concentration. Twelve wells receive drug vehicle-only to the appropriate final concentration and serve as controls for the plate. Cells are incubated for 96 hours at 37° C. in ambient air with 5% CO2. Fluorescein diacetate is then added to each well in 0.05 mL media to a final concentration of 8 microgram/mL. Cells are incubated for a further 15 minutes at 37° C. and 0.03 mL of 0.5% eosin Y is added to each well. Total fluorescence of viable cells is then measured by digital imaging microscopy. Results were graphed as the ratio of the fluoresecence of drug-treated wells to non-drug treated control wells (i.e., Survival Fraction). All tests were performed at least twice. Representative results are shown.
(§2) The Combination Index (CI) is a term to describe mathematical modeling of the pharmacologic effects on cytotoxicity (cell death) of two drugs in combination based. Cytotoxic “synergy” is defined as a cell death affect which is greater than would be expected from a simple product of the single agent cytotoxicities alone (i.e. an “additive” effect). By Chou-Talalay analysis, a CI<0.9 on a Fraction Affected (“Fa”, i.e. fraction of cells killed) indicates synergy, with smaller numbers indicating greater synergy; a CI of 0.9-1.1 signifies an additive or near-additive effect; and a CI>1.1 means the drug combination is antagonistic.
Fenretinide and L-threo-sphinganines tested in human lung adenocarcinoma (lung cancer) cell line, NCI-H-1792.

[2] = tested on: MOLT-4 ALL leukemia cell line; test: DIMSCAN cytotoxicity dose-response with fenretinide, with or without D-threo-PPMP (Examples A, FIGS. 6, 24-26); settings: +96 hrs
Protocol: (§3) Cytotoxicity Assay: Cytotoxicity in cell lines was determined using a fluorescence-based assay employing digital imaging microscopy (DIMSCAN)(after Fragala, et al, Mol Cancer Ther, 6:886-897, 2007). DIMSCAN quantitates viable cells which selectively accumulate fluorescein diacetate and is capable of measuring cytotoxicity over a 4-5 log dynamic range by quantifying total fluorescence per well (which is proportional to viable, clonogenic cells) after eliminating background fluorescence using digital thresholding and eosin Y quenching. Briefly, cell lines were seeded into 96-well plates in 100 µL of complete culture medium (10-20% serum) per well. Cells were incubated overnight in 2%, 5% or 20% oxygen (room air) prior to addition of drugs in […] volumes of complete medium to various final drug concentrations in replicates of 12 wells per concentration. In assays employing D-threo-PPMP, PPMP was employed at a fixed, minimally-toxic, final concentration of 10 μM in each well. Control wells received ethanol (final concentration=0.12%-0.20%) in complete medium equivalent to the maximum final ethanol concentration of drug-treated wells. Plates were incubated at various oxygen concentrations to simulate physiological hypoxia (i.e., 2% oxygen=typical solid tumor oxygen levels; 5%=bone marrow oxygen levels for leukemias; 20% room air=supraphysiological oxygen for comparison with typical laboratory culture conditions). Plates were assayed at 3-4 days after initiating drug exposure depending on the growth properties of each cell line, to allow for maximum cell death and outgrowth of surviving cells. To measure cytotoxicity, FDA (stock solution of 1 mg/ml in DMSO) was added, in 50 µL of complete medium per well, to a final concentration of 10 µg/ml. The plates were incubated for an additional 15-30 minutes at 37 C and then 30 µL of eosin Y (0.5% in normal saline) was added per well. Total fluorescence of each well was then measured using digital imaging microscopy.
FIGS. 1 to 26 illustrate the effect (Examples A1 through A26) of the claimed invention and were carried out using the procedures disclosed herein.

[3] = tested on: CHLA-266 primitive neuroectodermal tumor (PNET) cell line; test: DIMSCAN cytotoxicity, fenretinide + L-threo-sphinganines 3:1 (Example B9); settings: 96 h
Protocol: as §1, §2
Fenretinide and L-threo-sphinganines tested in human primitive neuroectodermal tumor (PNET) (brain cancer) cell line, CHLA-266.

[4] = tested on: CHLA-266 brain cancer (PNET) cell line; test: DIMSCAN cytotoxicity dose-response with fenretinide (Examples A, FIGS. 2, 8, 13); settings: 2% oxygen, at one or more doses, +96 hrs
Protocol: as §3, with “microscopy. […]” for “microscopy.”

[5] = tested on: MCF-7 breast adenocarcinoma cell line; test: DIMSCAN cytotoxicity, fenretinide + L-threo-sphinganines 3:1 (Example B14); settings: 96 h
Protocol: as §1, §2
(§4) Fenretinide and L-threo-sphinganines tested in human breast adenocarcinoma (breast cancer) cell lines, MCF-7 and MDA-MB-231.

[6] = tested on: MDA-MB-231 breast adenocarcinoma cell line; test: as above; settings: MDA-MB-231, 20% O2, 96 h
Protocol: as §1, §2, §4

[7] = 4-HPR 1.5 μM + L-threo-sphinganine 0.5 μM
[8] = 4-HPR 3 μM + L-threo-sphinganine 1 μM
[9] = 4-HPR 6 μM + L-threo-sphinganine 2 μM
[10] = 4-HPR 9 μM + L-threo-sphinganine 3 μM

CCCCCCCCCCCCCC[C@H](O)[C@@H](N)CO [C17, (2S,3S)-2-amino-1,3-heptadecanediol]
CI (Combination Index) [1, 7]: 1.1 | Fa (fraction affected) [1, 7]: 0.112 | CI (Combination Index) [1, 8]: 1.0 | Fa (fraction affected) [1, 8]: 0.661 | CI (Combination Index) [1, 9]: 0.9 | Fa (fraction affected) [1, 9]: 0.974 | CI (Combination Index) [1, 10]: 1.0 | Fa (fraction affected) [1, 10]: 0.993 | C.I. of D-threo-PPMP with fenretinide+L-threo-sphinganine (three drug combination) ([2]; 2% oxygen, D-threo-PPMP fixed 10 uM, at most doses): < 1 | C.I. (Combination Index) with fenretinide ([2]; at one or more doses): < 1 | CI (Combination Index) [3, 7]: 0.5 | Fa (fraction affected) [3, 7]: 0.502 | CI (Combination Index) [3, 8]: 0.5 | Fa (fraction affected) [3, 8]: 0.913 | CI (Combination Index) [3, 9]: 0.5 | Fa (fraction affected) [3, 9]: 0.990 | CI (Combination Index) [3, 10]: 0.7 | Fa (fraction affected) [3, 10]: 0.989 | C.I. (Combination Index) with fenretinide [4]: < 1 | CI (Combination Index) [5, 7]: 1.3 | Fa (fraction affected) [5, 7]: 0.112 | CI (Combination Index) [5, 8]: 0.7 | Fa (fraction affected) [5, 8]: 0.661 | CI (Combination Index) [5, 9]: 0.4 | Fa (fraction affected) [5, 9]: 0.974 | CI (Combination Index) [5, 10]: 0.4 | Fa (fraction affected) [5, 10]: 0.993 | CI (Combination Index) [6, 7]: 1.3 | Fa (fraction affected) [6, 7]: 0.127 | CI (Combination Index) [6, 8]: 0.9 | Fa (fraction affected) [6, 8]: 0.265 | CI (Combination Index) [6, 9]: 0.8 | Fa (fraction affected) [6, 9]: 0.610 | CI (Combination Index) [6, 10]: 0.7 | Fa (fraction affected) [6, 10]: 0.948
